Results: patent publication US12371454B2, “Cyclic peptide compound having Kras inhibitory action” (priority 2019, dated 2025)
Starred links: 1 amine or outer side, 2 acyl side, 3 side chain; linkers in the order of their positions; H or OH if unused. Positions of bridges follow the written chain, without caps; N, C: chain ends. Non-standard residues stand in square brackets, D forms with d. Residues, ends and D or L forms follow the SMILES beside them. *: point of attachment. hPhe(3,5-F2-4-CF3) = N[C@@H](CCc1cc(F)c(C(F)(F)F)c(F)c1)C(=O)O; hPhe(3-Cl-4-CF3) = N[C@@H](CCc1ccc(C(F)(F)F)c(Cl)c1)C(=O)O; NMePhe(4-CF3) = CN[C@@H](Cc1ccc(C(F)(F)F)cc1)C(=O)O; Piperazinyl(4-(3-oxetanyl)) = C1OCC1N1CCN(*)CC1; 3Oxa8azabicyclo(3.2.1)octane = C1CC2COCC1N2*; NEtPhe(4-Me) = CCN[C@@H](Cc1ccc(C)cc1)C(=O)O; NMeAbu(4,4,4-F3) = CN[C@@H](CC(F)(F)F)C(=O)O; NMePhe(4-Cl) = CN[C@@H](Cc1ccc(Cl)cc1)C(=O)O; X55 = C[C@@](Cc1cccc(I)c1)(N[*:1])C(=O)[*:2]; X77 = O=C([C@H](Cc1cc(Br)ccc1Cl)N[*:1])[*:2]; X18 = Cc1ccc(Br)cc1C[C@H](N[*:1])C(=O)[*:2]; Phe(2,6-F2) = N[C@@H](Cc1c(F)cccc1F)C(=O)O; NMeAla(cPent) = CN[C@@H](CC1CCCC1)C(=O)O; NMeGly(cPent) = CN[C@H](C(=O)O)C1CCCC1; Phe(3-I) = N[C@@H](Cc1cccc(I)c1)C(=O)O; Pro(4,4-F2) = O=C(O)[C@@H]1CC(F)(F)CN1; NMeY = CN[C@@H](Cc1ccc(O)cc1)C(=O)O; NMeCha = CN[C@@H](CC1CCCCC1)C(=O)O; NMeChg = CN[C@H](C(=O)O)C1CCCCC1; NMeF = CN[C@@H](Cc1ccccc1)C(=O)O; NMeI = CC[C@H](C)[C@H](NC)C(=O)O; NMeD = CN[C@@H](CC(=O)O)C(=O)O; NMeL = CN[C@@H](CC(C)C)C(=O)O; d(β3hP) = O=C(O)C[C@H]1CCCN1; NMeAbu = CC[C@H](NC)C(=O)O; Morpholide = C1CN(*)CCO1; NMeA = CN[C@@H](C)C(=O)O; NMeAib = CNC(C)(C)C(=O)O; Nle = CCCC[C@H](N)C(=O)O; Piperidide = C1CCN(*)CC1; Pra = C#CC[C@H](N)C(=O)O; Pyrrolidide = C1CCN(*)C1; Ac5c = NC1(C(=O)O)CCCC1; Aze = O=C(O)[C@@H]1CCN1; Ac4c = NC1(C(=O)O)CCC1; Sar = CNCC(=O)O

Biological target: T1, Kras and SOS1 (biotin-tagged human Kras loaded with GDP, His-tagged human SOS1) (Homo sapiens, UniProt P01116, G12D)
T1 construct: made in house; host or cells: E. coli (stated for Kras only)
Test: Protein-protein interaction inhibition between Kras and SOS1 (KrasGl2D-SOS PPI) using AlphaScreen
Assay type: binding
Details: AlphaScreen; biotin-tagged human Kras loaded with GDP, His-tagged human SOS1; read-out: KRAS G12D-SOS PPI IC50
In short: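 Donor beads (nickel) hold His-SOS1; acceptor beads (streptavidin) hold biotin-Kras bound to GDP. Signal measured at 520-620 nm following 680 nm excitation.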

T1 sequence (P01116 1-188 isoform P01116-2 G12D): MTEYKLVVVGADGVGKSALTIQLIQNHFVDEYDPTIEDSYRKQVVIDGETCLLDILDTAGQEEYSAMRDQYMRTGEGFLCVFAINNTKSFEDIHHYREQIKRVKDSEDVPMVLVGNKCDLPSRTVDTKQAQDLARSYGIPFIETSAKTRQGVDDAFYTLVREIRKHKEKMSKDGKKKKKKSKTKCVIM

First: CC[C@H](C)[C@@H]1NC(=O)[C@H](CC2CCCC2)N(C)C(=O)C[C@@H](C(=O)N2CCCC2)N(C)C(=O)[C@H]([C@@H](C)CC)N(C)C(=O)C2(CCCC2)NC(=O)[C@@H]2CCCN2C(=O)[C@H](CCc2ccc(C(F)(F)F)c(Cl)c2)NC(=O)CN(C)C(=O)[C@H](Cc2ccc(C(F)(F)F)cc2)N(C)C(=O)[C@@H]2CCN2C(=O)[C@H](C)N(C)C1=O [Compound 1183] ([NMeAla(cPent)]I[NMeA][Aze][NMePhe(4-CF3)][Sar][hPhe(3-Cl-4-CF3)]P[Ac5c][NMeI][NMeD]-Pyrrolidide; lactam N-11)
Second: CC[C@H](C)[C@@H]1NC(=O)[C@H](CC(F)(F)F)N(C)C(=O)C[C@@H](C(=O)N2CCCC2)N(C)C(=O)[C@H](C2CCCCC2)N(C)C(=O)C2(CCCC2)NC(=O)[C@@H]2CC(F)(F)CN2C(=O)[C@H](CCc2ccc(C(F)(F)F)c(Cl)c2)NC(=O)CN(C)C(=O)[C@H](Cc2ccc(C(F)(F)F)cc2)N(C)C(=O)CN(C)C(=O)CN(C)C1=O [Compound 1196] ([NMeAbu(4,4,4-F3)]I[Sar][Sar][NMePhe(4-CF3)][Sar][hPhe(3-Cl-4-CF3)][Pro(4,4-F2)][Ac5c][NMeChg][NMeD]-Pyrrolidide; lactam N-11)
The IC50 of the first is 1.5-fold higher: 0.73 nM for the first, 0.48 nM for the second.

Compared with C#CC[C@@H]1NC(=O)[C@H](Cc2cccc(I)c2)NC(=O)CN(C)C(=O)[C@H](Cc2ccccc2)N(C)C(=O)CN(C)C(=O)CN(C)C(=O)[C@H]([C@@H](C)CC)NC(=O)[C@H](CC(C)C)N(C)C(=O)C[C@@H](C(=O)N2CCCCC2)N(C)C(=O)[C@H](CC(C)C)NC(=O)C(C)(C)N(C)C1=O [Compound 1184] ([NMeL]I[Sar][Sar][NMeF][Sar][Phe(3-I)][Pra][NMeAib]L[NMeD]-Piperidide; lactam N-11), CCCC[C@@H]1NC(=O)[C@](C)(Cc2cccc(I)c2)NC(=O)CN(C)C(=O)[C@H](Cc2ccc(Cl)cc2)N(C)C(=O)CN(C)C(=O)CN(C)C(=O)[C@H]([C@@H](C)CC)NC(=O)[C@H](CC(C)C)N(C)C(=O)C[C@@H](C(=O)N2CCCCC2)N(C)C(=O)[C@H](CC(C)C)NC(=O)C(C)(C)N(C)C1=O [Compound 1202] ([NMeL]I[Sar][Sar][NMePhe(4-Cl)][Sar][X55][Nle][NMeAib]L[NMeD]-Piperidide; lactam N-11) is 1.8-fold higher in IC50: 130 nM for the first, 240 nM for the second.

CC[C@H](C)[C@@H]1NC(=O)[C@H](CC(C)C)N(C)C(=O)C[C@H]2CCCN2C(=O)[C@H](C2CCCCC2)N(C)C(=O)C2(CCCC2)NC(=O)[C@@H]2CCCN2C(=O)[C@H](CCc2ccc(C(F)(F)F)c(Cl)c2)NC(=O)CN(C)C(=O)[C@H](CC2CCCCC2)N(C)C(=O)CN(C)C(=O)CN(C)C1=O [Compound 1185] (cyclo([Ac5c][NMeChg][d(β3hP)][NMeL]I[Sar][Sar][NMeCha][Sar][hPhe(3-Cl-4-CF3)]P)) and CC[C@H](C)[C@@H]1NC(=O)[C@H](CC(C)C)N(C)C(=O)C[C@@H](C(=O)N2CCCCC2)N(C)C(=O)[C@H](C2CCCCC2)N(C)C(=O)C2(CCCC2)NC(=O)[C@@H]2CCCN2C(=O)[C@H](CCc2ccc(C(F)(F)F)c(Cl)c2)NC(=O)CN(C)C(=O)[C@H](CC2CCCCC2)N(C)C(=O)[C@H](C)N(C)C(=O)CN(C)C1=O [Compound 1186] ([NMeL]I[Sar][NMeA][NMeCha][Sar][hPhe(3-Cl-4-CF3)]P[Ac5c][NMeChg][NMeD]-Piperidide; lactam N-11) are within 1.5-fold of each other in IC50: 11 nM for the first, 8.6 nM for the second.

Going from CCCC[C@@H]1NC(=O)[C@H](Cc2c(F)cccc2F)NC(=O)CN(C)C(=O)[C@H](Cc2ccc(OC)cc2)N(C)C(=O)[C@@H]2CCN2C(=O)[C@H](C)N(C)C(=O)[C@H]([C@@H](C)CC)NC(=O)[C@H](CC)N(C)C(=O)C[C@@H](C(=O)N2CCCCC2)N(C)C(=O)[C@H](CC(C)C)NC(=O)C(C)(C)N(C)C1=O [Compound 1187] ([NMeAbu]I[NMeA][Aze][NMeY](Me)[Sar][Phe(2,6-F2)][Nle][NMeAib]L[NMeD]-Piperidide; lactam N-11) to CCCC[C@@H]1NC(=O)[C@H](Cc2cc(Br)ccc2C)NC(=O)CN(C)C(=O)[C@H](Cc2ccc(OC)cc2)N(C)C(=O)[C@@H]2CCN2C(=O)[C@H](C)N(C)C(=O)[C@H]([C@@H](C)CC)NC(=O)[C@H](CC)N(C)C(=O)C[C@@H](C(=O)N2CCCCC2)N(C)C(=O)[C@H](CC(C)C)NC(=O)C(C)(C)N(C)C1=O [Compound 1195] ([NMeAbu]I[NMeA][Aze][NMeY](Me)[Sar][X18][Nle][NMeAib]L[NMeD]-Piperidide; lactam N-11), the IC50 falls from 99 nM to 38 nM (2.6-fold).

Compared with CC[C@H](C)[C@@H]1NC(=O)[C@H](CC(C)C)N(C)C(=O)C[C@@H](C(=O)N2CCN(C3COC3)CC2)NC(=O)[C@H]([C@@H](C)CC)N(C)C(=O)C2(CCCC2)NC(=O)[C@@H]2CCCN2C(=O)[C@H](CCc2ccc(C(F)(F)F)c(Cl)c2)NC(=O)CN(C)C(=O)[C@H](CC2CCCCC2)N(C)C(=O)CN(C)C(=O)CN(C)C1=O [Compound 1191] ([NMeL]I[Sar][Sar][NMeCha][Sar][hPhe(3-Cl-4-CF3)]P[Ac5c][NMeI]D-{Piperazinyl(4-(3-oxetanyl))}; lactam N-11), CC[C@H](C)[C@@H]1NC(=O)[C@H](CC(C)C)N(C)C(=O)C[C@@H](C(=O)N2CCOCC2)N(C)C(=O)[C@H](C2CCCCC2)N(C)C(=O)C2(CCCC2)NC(=O)[C@@H]2CC(F)(F)CN2C(=O)[C@H](CCc2ccc(C(F)(F)F)c(Cl)c2)NC(=O)CN(C)C(=O)[C@H](CC2CCCCC2)N(C)C(=O)CN(C)C(=O)CN(C)C1=O [Compound 1194] ([NMeL]I[Sar][Sar][NMeCha][Sar][hPhe(3-Cl-4-CF3)][Pro(4,4-F2)][Ac5c][NMeChg][NMeD]-Morpholide; lactam N-11) is 13-fold lower in IC50: 6.7 nM for the first, 0.52 nM for the second.

Compared with CC[C@H](C)[C@@H]1NC(=O)[C@H](CC(C)C)N(C)C(=O)C[C@@H](C(=O)N2CCCC2)N(C)C(=O)[C@H](C2CCCCC2)N(C)C(=O)C2(CCC2)NC(=O)[C@@H]2CC(F)(F)CN2C(=O)[C@H](CCc2cc(F)c(C(F)(F)F)c(F)c2)NC(=O)CN(C)C(=O)[C@H](CC2CCCCC2)N(C)C(=O)CN(C)C(=O)CN(C)C1=O [Compound 1192] ([NMeL]I[Sar][Sar][NMeCha][Sar][hPhe(3,5-F2-4-CF3)][Pro(4,4-F2)][Ac4c][NMeChg][NMeD]-Pyrrolidide; lactam N-11), CC[C@H](C)[C@@H]1NC(=O)[C@H](CC(C)C)N(C)C(=O)C[C@@H](C(=O)N2C3CCC2COC3)N(C)C(=O)[C@H](C2CCCC2)N(C)C(=O)C2(CCCC2)NC(=O)[C@@H]2CCCN2C(=O)[C@H](CCc2cc(F)c(C(F)(F)F)c(F)c2)NC(=O)CN(C)C(=O)[C@H](Cc2ccc(C)cc2)N(CC)C(=O)[C@@H]2CCN2C(=O)[C@H](C)N(C)C1=O [Compound 1215] ([NMeL]I[NMeA][Aze][NEtPhe(4-Me)][Sar][hPhe(3,5-F2-4-CF3)]P[Ac5c][NMeGly(cPent)][NMeD]-{3Oxa8azabicyclo(3.2.1)octane}; lactam N-11) is 4.6-fold higher in IC50: 0.39 nM for the first, 1.8 nM for the second.

CCCC[C@@H]1NC(=O)[C@H](Cc2cc(Br)ccc2Cl)NC(=O)CN(C)C(=O)[C@H](Cc2ccc(OC)cc2)N(C)C(=O)[C@@H]2CCN2C(=O)[C@H](C)N(C)C(=O)[C@H]([C@@H](C)CC)NC(=O)[C@H](CC)N(C)C(=O)C[C@@H](C(=O)N2CCCCC2)N(C)C(=O)[C@H](CC(C)C)NC(=O)C(C)(C)N(C)C1=O [Compound 1212] ([NMeAbu]I[NMeA][Aze][NMeY](Me)[Sar][X77][Nle][NMeAib]L[NMeD]-Piperidide; lactam N-11) gave an IC50 of 120 nM.
